Reference: PubChem BioAssay (NCI)
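All cell lines were grown in 96-well plates and treated with compound for 48 hours. The concentration for full growth arrest is given as TGI.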

Legend:
Assay in all cases: NCI anticancer screen, dose series, 48 h
786-0 renal = tested on: 786-0 renal
T-47D breast = tested on: T-47D breast
NCI-H460 lung = tested on: NCI-H460 lung
MDA-MB-435 = tested on: MDA-MB-435
M14 melanoma = tested on: M14 melanoma
EKVX NSCLC = tested on: EKVX NSCLC
ACHN renal = tested on: ACHN renal
RXF 393 renal = tested on: RXF 393 renal
HL-60(TB) leukemia = tested on: HL-60(TB) leukemia
BT-549 breast = tested on: BT-549 breast
SF-539 CNS = tested on: SF-539 CNS
OVCAR-5 ovarian = tested on: OVCAR-5 ovarian
TK-10 renal = tested on: TK-10 renal
NCI-H522 lung = tested on: NCI-H522 lung
HT29 colon = tested on: HT29 colon
PC-3 prostate = tested on: PC-3 prostate
DU-145 prostate = tested on: DU-145 prostate
A498 renal = tested on: A498 renal
SNB-19 CNS = tested on: SNB-19 CNS
UACC-257 melanoma = tested on: UACC-257 melanoma
NCI-H226 lung = tested on: NCI-H226 lung
SK-MEL-5 melanoma = tested on: SK-MEL-5 melanoma
CAKI-1 renal = tested on: CAKI-1 renal
UO-31 renal = tested on: UO-31 renal
SF-295 CNS = tested on: SF-295 CNS
CCRF-CEM leukemia = tested on: CCRF-CEM leukemia
LOX IMVI melanoma = tested on: LOX IMVI melanoma
MOLT-4 leukemia = tested on: MOLT-4 leukemia
MALME-3M melanoma = tested on: MALME-3M melanoma
MDA-N = tested on: MDA-N
RPMI-8226 leukemia = tested on: RPMI-8226 leukemia
HOP-62 NSCLC = tested on: HOP-62 NSCLC
OVCAR-3 ovarian = tested on: OVCAR-3 ovarian
OVCAR-4 ovarian = tested on: OVCAR-4 ovarian
SF-268 CNS = tested on: SF-268 CNS
SK-MEL-2 melanoma = tested on: SK-MEL-2 melanoma
SK-MEL-28 melanoma = tested on: SK-MEL-28 melanoma
HOP-92 NSCLC = tested on: HOP-92 NSCLC
SN12C renal = tested on: SN12C renal
SK-OV-3 ovarian = tested on: SK-OV-3 ovarian
KM12 colon = tested on: KM12 colon
NCI-H23 lung = tested on: NCI-H23 lung
OVCAR-8 ovarian = tested on: OVCAR-8 ovarian
HCT-15 colon = tested on: HCT-15 colon
HCT-116 colon = tested on: HCT-116 colon
COLO 205 colon = tested on: COLO 205 colon
NCI/ADR-RES ovarian = tested on: NCI/ADR-RES ovarian
A549 NSCLC = tested on: A549 NSCLC
U251 CNS = tested on: U251 CNS
K-562 leukemia = tested on: K-562 leukemia
SNB-75 CNS = tested on: SNB-75 CNS
MDA-MB-231 breast = tested on: MDA-MB-231 breast
UACC-62 melanoma = tested on: UACC-62 melanoma
SW-620 colon = tested on: SW-620 colon

Cc1cc(-c2ccc(C(=O)C(Cl)(Cl)Cl)[nH]2)on1
TGI (786-0 renal): > 100 µM
TGI (T-47D breast): > 100 µM
TGI (NCI-H460 lung): 21.8 µM
TGI (MDA-MB-435): 70.6 µM
TGI (M14 melanoma): > 100 µM
TGI (EKVX NSCLC): > 100 µM
TGI (ACHN renal): > 100 µM
TGI (RXF 393 renal): 41.9 µM
TGI (HL-60(TB) leukemia): 64.6 µM
TGI (BT-549 breast): 98.1 µM
TGI (SF-539 CNS): 33 µM
TGI (OVCAR-5 ovarian): 73 µM
TGI (TK-10 renal): 69.1 µM
TGI (NCI-H522 lung): 97.4 µM
TGI (HT29 colon): 76.8 µM
TGI (PC-3 prostate): > 100 µM
TGI (DU-145 prostate): 39.6 µM
TGI (A498 renal): > 100 µM
TGI (SNB-19 CNS): > 100 µM
TGI (UACC-257 melanoma): > 100 µM
TGI (NCI-H226 lung): 62.9 µM
TGI (SK-MEL-5 melanoma): > 100 µM
TGI (CAKI-1 renal): 36.7 µM
TGI (UO-31 renal): 56.7 µM
TGI (SF-295 CNS): > 100 µM
TGI (CCRF-CEM leukemia): > 100 µM
TGI (LOX IMVI melanoma): > 100 µM
TGI (MOLT-4 leukemia): > 100 µM
TGI (MALME-3M melanoma): > 100 µM
TGI (MDA-N): > 100 µM
TGI (RPMI-8226 leukemia): > 100 µM
TGI (HOP-62 NSCLC): 24.8 µM
TGI (OVCAR-3 ovarian): 90.1 µM
TGI (OVCAR-4 ovarian): 70.1 µM
TGI (SF-268 CNS): > 100 µM
TGI (SK-MEL-2 melanoma): 66.7 µM
TGI (SK-MEL-28 melanoma): > 100 µM
TGI (HOP-92 NSCLC): > 100 µM
TGI (SN12C renal): 43.2 µM
TGI (SK-OV-3 ovarian): > 100 µM
TGI (KM12 colon): 24.6 µM
TGI (NCI-H23 lung): 54.3 µM
TGI (OVCAR-8 ovarian): > 100 µM
TGI (HCT-15 colon): > 100 µM
TGI (HCT-116 colon): > 100 µM
TGI (COLO 205 colon): > 100 µM
TGI (NCI/ADR-RES ovarian): 94.3 µM
TGI (A549 NSCLC): > 100 µM
TGI (U251 CNS): 28.7 µM
TGI (K-562 leukemia): > 100 µM
TGI (SNB-75 CNS): > 100 µM
TGI (MDA-MB-231 breast): 60.1 µM
TGI (UACC-62 melanoma): > 100 µM
TGI (SW-620 colon): > 100 µM
